Experimental findings from paper PMC12758200, “Inhibition of lysosomal LAMTOR1 increases autophagy by suppressing the MTORC1 pathway to ameliorate lipid accumulations in MAFLD” (Autophagy, 2025) are described below.

One assay has as its target T1, LAMTOR1 (Mus musculus, UniProt Q9CQ22, L22A).
T1 construct: MYC-LAMTOR1^L22A
Nature of the assay: DARTS in lysate of transfected HEK293 cells, […] ACA. Type of assay: cell-based.

The target in assay [1] is LAMTOR1 (late endosomal/lysosomal adaptor, MAPK and MTOR activator 1) (Mus musculus, UniProt Q9CQ22). Nature of the assay: dose-dependent DARTS western blot in 3T3-L1 lysate; CETSA and isothermal dose-response CETSA. The class given is biochemical. In general terms: In western blotting, separated proteins are transferred to a membrane and probed.
LAMTOR1 (late endosomal/lysosomal adaptor, MAPK and MTOR activator 1), sequence (Q9CQ22 2-161): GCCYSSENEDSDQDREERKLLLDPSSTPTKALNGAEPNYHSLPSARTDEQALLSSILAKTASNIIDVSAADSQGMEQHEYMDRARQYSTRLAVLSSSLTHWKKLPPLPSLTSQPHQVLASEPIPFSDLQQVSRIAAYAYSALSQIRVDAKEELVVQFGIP

T1 sequence (Q9CQ22 2-161 L22A): as the sequence (Q9CQ22 2-161) above, with L21A counted along it

Usually EC50 stands for the concentration giving half of the maximal effect. High values mean a less potent agent, low ones a more potent agent. For `COc1ccc(-c2cc(=O)c3c(O)cc(O)cc3o2)cc1` [ACA, 5,7-dihydroxy-4’methoxyflavone], the “% increase in stability” value on LAMTOR1 was 35.7 % increase in stability. The EC50 in assay [1] was ~44 µM.
